Columns and labels:
[1] = Dissociation constant, pKa of the compound by UV spectrophotometric method; assay type: physicochemical
[2] = Apparent intrinsic clearance in rat liver microsomes at 1 uM; assay type: ADME, microsome; conditions: read-out: CLH(app)
[3] = Apparent permeability in pig LLC-PK1 cells; assay type: ADME, cell-based, Sus scrofa
[4] = Apparent intrinsic clearance in human liver microsomes at 1 uM; assay type: ADME, microsome; conditions: read-out: CLH(app)
[5] = Drug level in Crl:CD(SD) rat brain at 10 mg/kg, po administered as single dose via gavage measured after 4 hrs; assay type: ADME, organism-based; conditions: read-out: Drug uptake
[6] = Plasma concentration in Crl:CD(SD) rat at 10 mg/kg, po administered as single dose via gavage measured after 4 hrs; assay type: ADME, organism-based
[7] = Drug level in Crl:CD(SD) rat CSF at 10 mg/kg, po administered as single dose via gavage measured after 4 hrs; assay type: ADME, organism-based, Cerebrospinal fluid; conditions: read-out: Drug uptake
[8] = Unbound plasma concentration in Crl:CD(SD) rat at 10 mg/kg, po administered as single dose via gavage measured after 4 hrs; assay type: ADME, organism-based; conditions: in vivo

SMILES	pKa [1]	microsomal CLint at 1 µM [2] [µL/min/mg]	Papp [3] [×10⁻⁶ cm/s]	microsomal CLint at 1 µM [4] [µL/min/mg]	concentration at 4 h [5] [nM]	concentration at 4 h [6] [nM]	concentration at 4 h [7] [nM]	Cp(f) [8] [nM]
COc1cnc(C(=O)Nc2ccc(F)c([C@]3(C)CCOC(N)=N3)c2)cn1	9.8	52	3.4	< 14	–	–	–	–
COc1cnc(C(=O)Nc2ccc(F)c([C@@]3(C)N=C(N)O[C@H]4C[C@H]43)c2)cn1	8.8	–	2.5	162	–	–	–	–
COc1cnc(C(=O)Nc2ccc(F)c([C@@]3(C)N=C(N)O[C@@H]4C[C@@H]43)c2)cn1	9.3	30	1.8	105	1100	2300	210	920

Reference: ChEMBL document CHEMBL4184270, “Diastereoselective synthesis of fused cyclopropyl-3-amino-2,4-oxazine β-amyloid cleaving enzyme (BACE) inhibitors and their biological evaluation” (Bioorg Med Chem Lett, 2018)
